Reference: ChEMBL document CHEMBL4715826, “Selective PPARδ Modulators Improve Mitochondrial Function: Potential Treatment for Duchenne Muscular Dystrophy (DMD)” (ACS Med Chem Lett, 2018)

How the values were obtained:
[1] = AUC in Wistar rat at 1 mg/kg, iv; type: ADME, organism-based; parameters: dose 1 mg/kg; conditions: in vivo
[2] = AUC in cynomolgus monkey at 10 mg/kg, po; type: ADME, organism-based, Macaca fascicularis; parameters: dose 10 mg/kg; conditions: in vivo
[3] = Cmax in CD-1 mouse at 3 mg/kg, po; type: ADME, organism-based; parameters: route oral, dose 3 mg/kg; conditions: in vivo
[4] = Permeability across basolateral to apical side in human Caco2 cells; type: ADME, cell-based; conditions: Caco-2, read-out: permeability
[5] = Clearance in Wistar rat at 1 mg/kg, iv; type: ADME, organism-based; conditions: in vivo
[6] = molecular target: T1, Peroxisome proliferator-activated receptor delta (Homo sapiens, UniProt Q03181)
T1 sequence (Q03181 whole entry): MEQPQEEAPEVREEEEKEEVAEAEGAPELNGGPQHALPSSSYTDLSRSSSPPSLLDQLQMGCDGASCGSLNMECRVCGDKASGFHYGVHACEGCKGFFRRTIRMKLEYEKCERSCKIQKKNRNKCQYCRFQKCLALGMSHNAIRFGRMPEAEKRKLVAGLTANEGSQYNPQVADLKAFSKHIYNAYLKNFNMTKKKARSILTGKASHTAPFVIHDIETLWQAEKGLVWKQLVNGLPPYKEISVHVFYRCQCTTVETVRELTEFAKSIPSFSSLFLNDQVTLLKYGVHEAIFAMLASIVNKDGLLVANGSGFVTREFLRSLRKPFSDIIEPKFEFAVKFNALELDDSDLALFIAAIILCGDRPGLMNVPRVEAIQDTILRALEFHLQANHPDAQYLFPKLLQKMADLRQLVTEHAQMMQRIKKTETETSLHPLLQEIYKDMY
Description: Modulator activity at GAL4-fused human PPARdelta LBD (128 to residue at C-terminus) transfected in African green monkey CV1 cells assessed as receptor transactivation by luciferase reporter gene assay

[7] = molecular target: T2, Peroxisome proliferator-activated receptor delta (Mus musculus) (UniProt P35396); assay: Modulator activity at PPARdelta in […] primary myoblasts derived from DMD patient assessed as upregulation of ANGPTL4 gene expression at 0.04 nM measured after 48 hrs; type: tissue-based; conditions: Primary myotube
T2 sequence (whole entry): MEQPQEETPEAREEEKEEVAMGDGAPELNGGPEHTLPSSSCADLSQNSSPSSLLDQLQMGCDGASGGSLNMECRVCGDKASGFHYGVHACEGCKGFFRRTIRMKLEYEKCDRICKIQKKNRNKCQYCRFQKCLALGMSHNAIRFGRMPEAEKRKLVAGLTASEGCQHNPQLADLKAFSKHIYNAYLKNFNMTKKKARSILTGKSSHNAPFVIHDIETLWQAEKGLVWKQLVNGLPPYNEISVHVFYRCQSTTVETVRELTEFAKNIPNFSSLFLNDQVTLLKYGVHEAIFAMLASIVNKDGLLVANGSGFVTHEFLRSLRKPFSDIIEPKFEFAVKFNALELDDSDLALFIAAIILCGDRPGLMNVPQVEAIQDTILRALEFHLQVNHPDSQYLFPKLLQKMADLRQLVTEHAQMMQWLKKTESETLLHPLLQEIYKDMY

[8] = Inhibition of CYP450 (unknown origin); type: ADME, Homo sapiens
[9] = Cmax in cynomolgus monkey at 10 mg/kg, po; type: ADME, organism-based, Macaca fascicularis; parameters: route oral, dose 10 mg/kg; conditions: in vivo
[10] = Cmax in Wistar rat at 3 mg/kg, po; type: ADME, organism-based; parameters: route oral, dose 3 mg/kg; conditions: in vivo
[11] = Volume of distribution at steady state in Wistar rat at 1 mg/kg, iv; type: ADME, organism-based; conditions: in vivo, read-out: Vdss
[12] = AUC in CD-1 mouse at 1 mg/kg, iv; type: ADME, organism-based; parameters: dose 1 mg/kg; conditions: in vivo
[13] = AUC in Wistar rat at 3 mg/kg, po; type: ADME, organism-based; parameters: dose 3 mg/kg; conditions: in vivo
[14] = Volume of distribution at steady state in CD-1 mouse at 1 mg/kg, iv; type: ADME, organism-based; conditions: in vivo, read-out: Vdss
[15] = molecular target: T2, Peroxisome proliferator-activated receptor delta (Mus musculus); assay: Modulator activity at PPARdelta in […] primary myoblasts derived from DMD patient assessed as upregulation of PDK4 gene expression at 0.04 nM measured after 48 hrs; type: tissue-based; conditions: Primary myotube
[16] = Half life in CD-1 mouse at 3 mg/kg, po; type: ADME, organism-based; conditions: in vivo
[17] = Clearance in CD-1 mouse at 3 mg/kg, iv; type: ADME, organism-based; conditions: in vivo
[18] = Half life in CD-1 mouse at 1 mg/kg, iv; type: ADME, organism-based; conditions: in vivo
[19] = Half life in cynomolgus monkey at 3 mg/kg, iv; type: ADME, organism-based, Macaca fascicularis; conditions: in vivo
[20] = AUC in CD-1 mouse at 3 mg/kg, iv; type: ADME, organism-based; parameters: dose 3 mg/kg; conditions: in vivo
[21] = Half life in Wistar rat at 1 mg/kg, iv; type: ADME, organism-based; conditions: in vivo
[22] = Half life in Wistar rat at 3 mg/kg, po; type: ADME, organism-based; conditions: in vivo
[23] = Half life in cynomolgus monkey at 10 mg/kg, po; type: ADME, organism-based, Macaca fascicularis; conditions: in vivo
[24] = Modulator activity at rat PPARdelta
[25] = AUC in CD-1 mouse at 3 mg/kg, po; type: ADME, organism-based; parameters: dose 3 mg/kg; conditions: in vivo
[26] = molecular target: T3, Peroxisome proliferator-activated receptor alpha (Homo sapiens, UniProt Q07869); assay: Modulator activity at GAL4-fused human PPARalpha LBD (unknown origin) transfected in African green monkey CV1 cells assessed as receptor transactivation by luciferase reporter gene assay; type: cell-based, CV-1
T3 sequence (Q07869 whole entry): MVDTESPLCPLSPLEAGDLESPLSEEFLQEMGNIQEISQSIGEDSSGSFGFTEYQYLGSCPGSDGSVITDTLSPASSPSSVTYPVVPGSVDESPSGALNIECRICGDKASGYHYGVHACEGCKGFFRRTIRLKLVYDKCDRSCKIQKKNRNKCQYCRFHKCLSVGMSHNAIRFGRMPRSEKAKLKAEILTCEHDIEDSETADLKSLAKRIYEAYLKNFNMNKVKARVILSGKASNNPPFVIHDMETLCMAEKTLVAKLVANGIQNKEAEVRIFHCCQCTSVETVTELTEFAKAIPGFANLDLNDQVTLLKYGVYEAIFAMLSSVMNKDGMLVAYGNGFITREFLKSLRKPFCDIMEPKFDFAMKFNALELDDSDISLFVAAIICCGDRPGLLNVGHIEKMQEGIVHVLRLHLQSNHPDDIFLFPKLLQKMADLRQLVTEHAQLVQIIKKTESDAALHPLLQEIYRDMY

[27] = Oral bioavailability in CD-1 mouse at 3 mg/kg; type: ADME, organism-based; conditions: in vivo
[28] = Permeability across apical to basolateral side in human Caco2 cells; type: ADME, cell-based; conditions: Caco-2, read-out: permeability
[29] = Protein binding in mouse plasma; type: ADME, cell-free; conditions: read-out: PPB (converted)
[30] = Protein binding in rat plasma; type: ADME, cell-free; conditions: read-out: PPB (converted)

Cc1cnc(-c2ccc(OC(F)(F)F)cc2)n1Cc1ccccc1OCCC[C@@H](C)CC(=O)O
AUC [1]: 1590 ng·h/mL
AUC [2]: 3840 ng·h/mL
Cmax [3]: 510 ng/mL
Papp B→A [4]: 41 ×10⁻⁶ cm/s
clearance [5]: 10 mL/min/kg
EC50 [6]: 0.4 nM
Activity [7]: 36%
IC50 [8]: ≥ 10000 nM
Cmax [9]: 1660 ng/mL
Cmax [10]: 1090 ng/mL
Vd [11]: 1.8 L/kg
AUC [12]: 503 ng·h/mL
AUC [13]: 4920 ng·h/mL
Vd [14]: 5.8 L/kg
Activity [15]: 32%
half-life [16]: 3.4 h
clearance [17]: 25 mL/min/kg
half-life [18]: 2.7 h
t1/2 [19]: 6.1 h
AUC [20]: 1250 ng·h/mL
half-life [21]: 6.1 h
half-life [22]: 4.6 h
half-life [23]: 7.3 h
EC50 [24]: 10 nM
AUC [25]: 630 ng·h/mL
EC50 [26]: 6900 nM
bioavailability [27]: 42%
Papp A→B [28]: 36 ×10⁻⁶ cm/s
fraction unbound [29]: 0.005
fraction unbound [30]: 0.004
